In patent publication US8377981B2, “CBI derivatives subject to reductive activation” (The Scripps Research Institute, priority 2007, dated 2013):
Where two headings read alike, the source gives them in different places.

Key:
[1] = tested on: L1210 cell line (mouse leukemia); experiment: Cytotoxic activity, L1210 cell line; format: cell-based
Experimental: (§1) The O-amino phenol derivatives bearing the N—O prodrug linkages and the various N-acyl substituents were assayed for cytotoxic activity alongside the parent drugs CBI-TMI (2) (Boger, D. L.; Yun, W. J. Am. Chem. Soc. 1994, 116, 7996) and mitomycin C (Boger, D. L.; et al. Bioorg. Med. Chem. Lett. 1991, 1, 115; Boger, D. L.; et al. Bioorg. Med. Chem. 1995, 3, 1429) as well as the two control standards 9 and 10 incapable of free phenol release. Three cell lines were examined including a standard L1210 cell line (mouse leukemia) as well as the mitomycin-sensitive (H460, expresses high levels of DT-Diaphorase) and resistant (H596, lacks DT-Diaphorase) non small cell lung cancer (NSCLC) cell lines, with results shown in the Table below.

[2] = tested on: H460 (mitomycin-sensitive, expresses high levels of DT-Diaphorase) non small cell lung cancer (NSCLC) cell line; experiment: Cytotoxic activity, H460 cell line; format: cell-based
Experimental: as §1

[3] = tested on: H596 (mitomycin-resistant, lacks DT-Diaphorase) non small cell lung cancer (NSCLC) cell line; experiment: Cytotoxic activity, H596 cell line; format: cell-based
Experimental: as §1

[4] = Chemical stability and reactivity of the N-acyl O-amino phenol derivatives; format: physicochemical; conditions: for stability to acidic conditions: TFA-CH2Cl2, 4 N HCl-EtOAc
[5] = tested on: L1210 murine leukemia implanted i.p. into DBA/2J mice; experiment: In vivo antitumor activity, L1210 i.p. in DBA/2J mice (30% DMSO in 0.1% glucose); design: species or system mouse; conditions: for Surviving Mice: 365 days; for weight loss of treated animals: days 30-100, highest dosing
Source text: The prodrug 8 was examined for in vivo efficacy alongside the parent drug 3 in a standard antitumor model enlisting L1210 murine leukemia implanted i.p. into DBA/2J mice. This model has been reported to respond well to the parent drugs of related compounds (Li, L. H.; et al. Invest. New Drugs 1991, 9, 137) and is a system that collaborators through the years have used to assess an extensive series of (+)-CBI-indole2 analogues. Although not published, these latter studies provided the foundation on which examination of 8 is based.
With use the dose range (10-100 μg/kg) and the dosing schedule (administered three times i.p. on days 1, 5, and 9) found suitable for related parent drugs including (+)-CBI-indole2 (3) (Boger, D. L.; et al. Bioorg. Med. Chem. Lett. 1991, 1, 115; Boger, D. L.; et al. Bioorg. Med. Chem. 1995, 3, 1429), the prodrug 8 was examined as is shown in the Table below.
DBA/2J mice were purchased from Jackson Laboratory (Bar Harbor, Me.) and housed in the animal facility at The Scripps Research Institute. L1210 tumor cells, originally isolated from DBA/2 mice, were cultured in DMEM medium containing 5% fetal calf serum. For tumor implantation, DBA/2J mice were i.p. injected with 1×10^5 L1210 cells at day 0.
Compounds 3 and 8 were formulated with 30% DMSO plus 0.1% glucose solution. Treatment doses of drugs (0, 10, 30, 100 µg/kg wt. of animal) were i.p. injected consecutively on day 1, 5 and 9. The study was performed with six mice per group. Tumor growth in the peritoneal cavity was monitored daily and the death of animals was recorded. If necessary, weights of animals were measured once a week. To date this monitoring of the animals has lasted 365 days.

[6] = tested on: L1210 murine leukemia implanted i.p. into DBA/2J mice; experiment: In vivo antitumor activity, second site (neat DMSO, terminated after 120 days); design: species or system mouse; conditions: for Surviving Mice: still living after 120 days
Experimental: Confirming these observations, an analogous antitumor assessment was carried out independently at a second site utilizing a slightly different and harsher protocol for drug administration (neat DMSO vs 30% DMSO in 0.1% glucose).
In the above Table, the second column is the dose in mg/kg of body weight of the animal that is administered i.p. (into the intraperitoneal cavity) on days 1, 5, and 9. The surviving mice are the number of mice that are still living after 120 days and the experiment was then terminated.
An analogous study with 10 mice per group was performed at the University of Kansas with the distinction that the compounds were administered in neat DMSO (0, 10, 30, 60, 100 µg/kg wt. of animal) and the study was terminated after 120 days.

[7] = unnatural enantiomer series, CBI-TMI derivatives, read-out: IC50 (nM) L1210
[8] = unnatural enantiomer series, CBI-TMI derivatives, read-out: IC50 (nM) H460
[9] = unnatural enantiomer series, CBI-TMI derivatives, read-out: IC50 (nM) H596
[10] = unnatural enantiomer series, CBI-indole2 derivatives, read-out: IC50 (nM) L1210
[11] = unnatural enantiomer series, CBI-indole2 derivatives, read-out: IC50 (nM) H460
[12] = unnatural enantiomer series, CBI-indole2 derivatives, read-out: IC50 (nM) H596
[13] = Mus musculus, L1210, read-out: IC50 (nM) L1210, natural enantiomer series, CBI-TMI derivatives
[14] = Homo sapiens, NCI-H460, read-out: IC50 (nM) H460
[15] = Homo sapiens, NCI-H596, read-out: IC50 (nM) H596
[16] = Homo sapiens, NCI-H596, natural enantiomer series, CBI-indole2 derivatives, read-out: IC50 (nM) H596
[17] = 10 μg/kg i.p. days 1, 5, 9, neat DMSO
[18] = 30 μg/kg i.p. days 1, 5, 9, neat DMSO
[19] = 60 μg/kg i.p. days 1, 5, 9, neat DMSO
[20] = 100 μg/kg i.p. days 1, 5, 9, neat DMSO

COc1cc2cc(C(=O)N3CC(CCl)c4c3cc(ON3C(=O)c5ccccc5C3=O)c3ccccc43)[nH]c2c(OC)c1OC (stereo not shown) [Compound 7]
IC50 [1, 7]: 60 nM | IC50 [2, 8]: 600 nM | IC50 [3, 9]: 6000 nM

CO[C@@]12[C@H](COC(N)=O)C3=C(C(=O)C(C)=C(N)C3=O)N1C[C@@H]1N[C@@H]12 [mitomycin C, reference compound]
IC50 ([1]; natural enantiomer series, CBI-TMI derivatives, read-out: IC50 (nM) L1210): 40 nM | IC50 ([1]; natural enantiomer series, CBI-indole2 derivatives, read-out: IC50 (nM) L1210): 40 nM | IC50 ([1]; text range over L1210 and H460, read-out: IC50): 20 to 40 nM | IC50 [1, 7]: 40 nM | IC50 [1, 10]: 40 nM | IC50 ([2]; natural enantiomer series, CBI-TMI derivatives, read-out: IC50 (nM) H460): 20 nM | IC50 ([2]; natural enantiomer series, CBI-indole2 derivatives, read-out: IC50 (nM) H460): 20 nM | IC50 [2, 8]: 20 nM | IC50 [2, 11]: 20 nM | IC50 ([3]; mitomycin-resistant H596 cell line, read-out: IC50): 5000 nM | IC50 ([3]; natural enantiomer series, CBI-TMI derivatives, read-out: IC50 (nM) H596): 5000 nM | IC50 ([3]; natural enantiomer series, CBI-indole2 derivatives, read-out: IC50 (nM) H596): 5000 nM | IC50 [3, 9]: 5000 nM | IC50 [3, 12]: 5000 nM

COc1cc2cc(C(=O)N3C[C@@H](CCl)c4c3cc(ON3C(=O)c5ccccc5C3=O)c3ccccc43)[nH]c2c(OC)c1OC [Compound 7]
IC50 [1, 13]: 0.06 nM | IC50 [2, 14]: 0.5 nM | IC50 [3, 15]: 5 nM | stability to acidic conditions [4]: surprisingly robust to acidic conditions | stability on long term storage [4]: noticeably deteriorating over time

COc1cc2cc(C(=O)N3C[C@@H](CCl)c4c3cc(ON(C(C)=O)C(=O)OC(C)(C)C)c3ccccc43)[nH]c2c(OC)c1OC [Compound 6]
IC50 [1, 13]: 0.2 nM | IC50 [2, 14]: 0.6 nM | IC50 [3, 15]: 5 nM | stability to acidic conditions [4]: surprisingly robust to acidic conditions

COc1cc2cc(C(=O)N3C[C@@H](CCl)c4c3cc(ONC(C)=O)c3ccccc43)[nH]c2c(OC)c1OC [Compound 5]
IC50 [1, 13]: 0.3 nM | IC50 [2, 14]: 0.7 nM | IC50 [3, 15]: 7 nM | stability on long term storage [4]: withstanding even long term storage effectively

COc1cc2cc(C(=O)N3C[C@@H](CCl)c4c3cc(O)c3ccccc43)[nH]c2c(OC)c1OC [Compound 2, seco-CBI-TMI, reference compound]
IC50 [1, 13]: 0.04 nM | IC50 [1, 7]: 5 nM | IC50 [2, 14]: 0.5 nM | IC50 [2, 8]: 50 nM | fold lower sensitivity of H596 than H460 ([3]; H596 versus H460): 10 fold | IC50 [3, 15]: 5 nM | IC50 [3, 9]: 300 nM

CC(C)(C)OC(=O)NOc1cc2c(c3ccccc13)[C@H](CCl)CN2C(=O)c1cc2cc(NC(=O)c3cc4ccccc4[nH]3)ccc2[nH]1 [Compound 8]
IC50 ([1]; Mus musculus, L1210, read-out: IC50 (nM) L1210, natural enantiomer series, CBI-indole2 derivatives): 0.05 nM | IC50 ([1]; Mus musculus, L1210, text range over L1210 and H460, natural enantiomer): 0.03 to 0.2 nM | potency compared with CBI-indole2 (3) ([1]; in each cell line examined): essentially equipotent | times more active than mitomycin C ([1]; natural enantiomer): 100-1000 times | fold less active than the natural enantiomer ([1]; unnatural enantiomer of prodrug 8): 10-100 fold | IC50 [2, 14]: 0.3 nM | IC50 [3, 16]: 4 nM | Mean Survival Period (MSP) ([5]; 10 μg/kg i.p. days 1, 5, 9): 25 days | Treated/Control (MSP × 100) ([5]; 10 μg/kg i.p. days 1, 5, 9): 120 | Surviving Mice ([5]; 10 μg/kg i.p. days 1, 5, 9): 0/6 | Mean Survival Period (MSP) ([5]; 30 μg/kg i.p. days 1, 5, 9): >145 days | Treated/Control (MSP × 100) ([5]; 30 μg/kg i.p. days 1, 5, 9): >730 | Surviving Mice ([5]; 30 μg/kg i.p. days 1, 5, 9): 2/6 | Mean Survival Period (MSP) ([5]; 100 μg/kg i.p. days 1, 5, 9): >310 days | Treated/Control (MSP × 100) ([5]; 100 μg/kg i.p. days 1, 5, 9): >1550 | Surviving Mice ([5]; 100 μg/kg i.p. days 1, 5, 9): 5/6 | weight loss of treated animals [5]: little or no weight loss | Mean Survival Period (MSP) [6, 17]: >46 days | Treated/Control (MSP × 100) [6, 17]: >210 | Surviving Mice ([6]; 10 μg/kg): 2/10 | Mean Survival Period (MSP) [6, 18]: >51 days | Treated/Control (MSP × 100) [6, 18]: >232 | Surviving Mice ([6]; 30 μg/kg): 2/10 | Mean Survival Period (MSP) [6, 19]: >93 days | Treated/Control (MSP × 100) [6, 19]: >425 | Surviving Mice ([6]; 60 μg/kg): 7/10 | Mean Survival Period (MSP) [6, 20]: >63 days | Treated/Control (MSP × 100) [6, 20]: >288 | Surviving Mice ([6]; 100 μg/kg): 3/10 | efficacy compared with free drug 3 ([6]; deaths due to the disease, tumor counts, tumor volume): comparable or superior in terms of reducing deaths due to the disease, tumor counts, and tumor volume | toxicity of administration compared with free drug 3 ([6]; neat DMSO, 120 days): significantly less toxic than free drug 3

O=C(Nc1ccc2[nH]c(C(=O)N3C[C@@H](CCl)c4c3cc(O)c3ccccc43)cc2c1)c1cc2ccccc2[nH]1 [Compound 3, seco-CBI-indole2, reference compound]
IC50 ([1]; Mus musculus, L1210, natural enantiomer series, CBI-indole2 derivatives, read-out: IC50 (nM) L1210): 0.03 nM | IC50 [1, 10]: 0.7 nM | IC50 ([2]; Homo sapiens, NCI-H460, natural enantiomer series, CBI-indole2 derivatives, read-out: IC50 (nM) H460): 0.2 nM | IC50 [2, 11]: 6 nM | IC50 [3, 16]: 2 nM | IC50 [3, 12]: 40 nM | Mean Survival Period (MSP) ([5]; 10 μg/kg i.p. days 1, 5, 9): 34 days | Treated/Control (MSP × 100) ([5]; 10 μg/kg i.p. days 1, 5, 9): 170 | Surviving Mice ([5]; 10 μg/kg i.p. days 1, 5, 9): 0/6 | Mean Survival Period (MSP) ([5]; 30 μg/kg i.p. days 1, 5, 9): >115 days | Treated/Control (MSP × 100) ([5]; 30 μg/kg i.p. days 1, 5, 9): >580 | Surviving Mice ([5]; 30 μg/kg i.p. days 1, 5, 9): 1/6 | Mean Survival Period (MSP) ([5]; 100 μg/kg i.p. days 1, 5, 9): 125 days | Treated/Control (MSP × 100) ([5]; 100 μg/kg i.p. days 1, 5, 9): 625 | Surviving Mice ([5]; 100 μg/kg i.p. days 1, 5, 9): 0/6 | weight loss of treated animals [5]: weight loss that was evident | fate of surviving mice at day 90 ([5]; prolonged management beyond day 90): eventually expired due to drug administration related complications | Mean Survival Period (MSP) [6, 17]: >60 days | Treated/Control (MSP × 100) [6, 17]: >271 | Surviving Mice ([6]; 10 μg/kg): 3/10 | Mean Survival Period (MSP) [6, 18]: >65 days | Treated/Control (MSP × 100) [6, 18]: >295 | Surviving Mice ([6]; 30 μg/kg): 3/10 | Mean Survival Period (MSP) [6, 19]: >71 days | Treated/Control (MSP × 100) [6, 19]: >324 | Surviving Mice ([6]; 60 μg/kg): 3/10 | Mean Survival Period (MSP) [6, 20]: 11 days | Treated/Control (MSP × 100) [6, 20]: 52 | Surviving Mice ([6]; 100 μg/kg): 0/10
